According to patent US11759462B2, “Spirocyclic compounds as tryptophan hydroxylase inhibitors” (priority 2013, dated 2023):
Like-named read-outs stand apart in the source and are kept apart here.

Target: T1, Recombinant human TPH1 (MBP tagged) (Homo sapiens, UniProt P17752)
T1 construct: cloning full length human TPH1 cDNA in to a bacterial pMAL-c5E expression vector; made in house; host or cells: E. coli BL21 (DE3)
T1 sequence (P17752 1-444): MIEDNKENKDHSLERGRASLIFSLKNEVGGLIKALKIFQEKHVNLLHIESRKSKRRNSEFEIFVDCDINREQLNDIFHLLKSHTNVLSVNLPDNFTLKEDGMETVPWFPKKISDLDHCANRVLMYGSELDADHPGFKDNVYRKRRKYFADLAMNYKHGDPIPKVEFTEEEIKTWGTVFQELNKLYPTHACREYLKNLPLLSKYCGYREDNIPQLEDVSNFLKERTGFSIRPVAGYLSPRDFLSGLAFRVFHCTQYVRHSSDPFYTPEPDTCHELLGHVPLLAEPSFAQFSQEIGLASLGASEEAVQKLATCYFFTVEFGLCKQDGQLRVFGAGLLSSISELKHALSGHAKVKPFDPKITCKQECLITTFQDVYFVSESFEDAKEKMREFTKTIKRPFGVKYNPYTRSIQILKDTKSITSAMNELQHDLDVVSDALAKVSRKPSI
Assay: TPH1 in vitro inhibition assay (kinetic fluorescence)
Assay type: biochemical
Source text: Recombinant human TPH1 (rTPH1 GenBank™ accession no. NP_004179) was expressed by cloning full length human TPH1 cDNA in to a bacterial pMAL-c5E expression vector to produce maltose-binding protein (MBP) TPH1 fusion proteins. E. coli BL21 (DE3) containing pMAL-c5E-TPH1 was used for protein generation and the recombinant protein was purified utilizing standard column chromatography techniques. The MBP tagged TPH1 (MBP-TPH1) was used directly to screen compounds as described below. Recombinant human TPH2 (rTPH2 GenBank™ accession no. 173353), PheOH (rPheOH GenBank™ accession no. K03020) and TH (rTH GenBank™ accession no. L20679) with an MBP tag were produced similarly.
TPH1 activities were measured in an assay containing 200 mM ammonium sulfate, 7 mM DTT, 50 μg/mL catalase, 25 μM ammonium iron sulfate, 50 mM MES, pH 7.1. Test compounds were diluted in 100% DMSO and added to the assay plate in 1 μL aliquots at 100× final concentration. Fifty microliters of assay buffer containing 30 nM TPH1 enzyme (MBP tagged) were added to the plate wells containing the test compound by the use of an Eppendorf repeater pipette. The reaction was initiated by the addition of 50 μL of assay buffer containing 60 μM tryptophan and 72 μM 6-6-methyltetra-hydropterin (2× final concentration) by the use of a Multidrop (LabSystems). Final reaction conditions were 15 nM TPH1 enzyme, 30 μM tryptophan, 36 μM 6-methyltetra-hydropterin, 200 mM ammonium sulfate, 7 mM DTT, […], 25 μM ferrous ammonium sulfate, 50 mM MES, pH 7.1, with atmospheric oxygen at room temperature. The plate was immediately placed onto an M5 plate reader (Molecular Devices) for kinetic fluorescence measurement using an excitation setting of 300 nm and an emission setting of 335 nm. Fluorescence reads are recorded in kinetic mode for 300 seconds (5 minutes).
Kinetic assay data for compounds at specific concentrations was translated into slopes using the Softmax Pro software on a Spectramax reader, and compound inhibition slopes were compared with wells containing enzyme, substrate and cofactor in the absence of inhibitor (100%), and wells containing substrate and cofactor in the absence of enzyme (0%). DMSO concentration in the assay was 1%. […] IC50's were determined using Graphpad Prism.

[1] = read-out: TPH1 Range (TPH1 inhibition IC50)
[2] = TPH1 Range (TPH1 inhibition IC50)

Row | Structure (SMILES) | IC50 [1] [nM] | IC50 [2] [nM]
1 | Cc1ccn(-c2cc(-c3cccc(C(F)(F)F)c3)ccc2[C@@H](Oc2cc(N3CCC4(CC3)CN[C@H](C(=O)O)C4)nc(N)n2)C(F)(F)F)n1 [Example 1am, (S)-8-(2-amino-6-((R)-2,2,2-trifluoro-1-(3-(3-methyl-1H-pyrazol-1-yl)-3′-(trifluoromethyl)-[1,1′-biphenyl]-4-yl)ethoxy)pyrimidin-4-yl)-2,8-diazaspiro[4.5]decane-3-carboxylic acid] | < 50 | –
2 | CCOc1ccc(-c2ccc([C@@H](Oc3cc(N4CCC5(CC4)CN[C@H](C(=O)O)C5)nc(N)n3)C(F)(F)F)c(-n3ccc(C)n3)c2)cc1 [Example 1q, (S)-8-(2-amino-6-((R)-1-(4′-ethoxy-3-(3-methyl-1H-pyrazol-1-yl)-[1,1′-biphenyl]-4-yl)-2,2,2-trifluoroethoxy)pyrimidin-4-yl)-2,8-diazaspiro[4.5]decane-3-carboxylic acid] | < 50 | –
3 | Cc1ccn(-c2ccc(Br)cc2[C@@H](Oc2cc(N3CCC4(CC3)CN[C@H](C(=O)O)C4)nc(N)n2)C(F)(F)F)n1 [Example 10n, (S)-8-(2-amino-6-((R)-1-(5-bromo-2-(3-methyl-1H-pyrazol-1-yl)phenyl)-2,2,2-trifluoroethoxy)pyrimidin-4-yl)-2,8-diazaspiro[4.5]decane-3-carboxylic acid] | < 50 | –
4 | COC(=O)c1ccc(-c2ccc([C@@H](Oc3cc(N4CCC5(CC4)CN[C@H](C(=O)O)C5)nc(N)n3)C(F)(F)F)cc2)cc1OC(C)=O [Example 55ad, (S)-8-(6-((R)-1-(3′-acetoxy-4′-(methoxycarbonyl)-[1,1′-biphenyl]-4-yl)-2,2,2-trifluoroethoxy)-2-aminopyrimidin-4-yl)-2,8-diazaspiro[4.5]decane-3-carboxylic acid] | 50 to 300 | –
5 | Nc1nc(O[C@H](c2ccc(-c3ccc4[nH]ncc4c3)cc2)C(F)(F)F)cc(N2CCC3(CC2)CN[C@H](C(=O)O)C3)n1 [Example 55w, (S)-8-(6-((R)-1-(4-(1H-indazol-5-yl)phenyl)-2,2,2-trifluoroethoxy)-2-aminopyrimidin-4-yl)-2,8-diazaspiro[4.5]decane-3-carboxylic acid] | – | < 50
6 | Cc1ccn(-c2ccc(-c3ccc(/C=C/C(=O)O)cc3)cc2[C@@H](Oc2cc(N3CCC4(CC3)CN[C@H](C(=O)O)C4)nc(N)n2)C(F)(F)F)n1 [Example 19i, (S)-8-(2-amino-6-((R)-1-(4′-((E)-2-carboxyvinyl)-4-(3-methyl-1H-pyrazol-1-yl)-[1,1′-biphenyl]-3-yl)-2,2,2-trifluoroethoxy)pyrimidin-4-yl)-2,8-diazaspiro[4.5] decane-3-carboxylic acid] | < 50 | –
7 | Cc1ccn(-c2cc(-c3cccc(C(C)(C)C)c3)ccc2[C@@H](Oc2cc(N3CCC4(CC3)CN[C@H](C(=O)O)C4)nc(N)n2)C(F)(F)F)n1 [Example 1az, (S)-8-(2-amino-6-((R)-1-(3′-(tert-butyl)-3-(3-methyl-1H-pyrazol-1-yl)-[1,1′-biphenyl]-4-yl)-2,2,2-trifluoroethoxy)pyrimidin-4-yl)-2,8-diazaspiro[4.5]decane-3-carboxylic acid] | 50 to 300 | –
8 | CC(=O)NCc1ccc(-c2ccc([C@@H](Oc3cc(N4CCC5(CC4)CN[C@H](C(=O)O)C5)nc(N)n3)C(F)(F)F)c(-n3ccc(C)n3)c2)cc1 [Example 1x, (S)-8-(6-((R)-1-(4′-(acetamidomethyl)-3-(3-methyl-1H-pyrazol-1-yl)-[1,1′-biphenyl]-4-yl)-2,2,2-trifluoroethoxy)-2-aminopyrimidin-4-yl)-2,8-diazaspiro[4.5]decane-3-carboxylic acid] | < 50 | –
9 | Cc1ccn(-c2cc(-c3ccc(OC(C)C)cc3)ccc2[C@@H](Oc2cc(N3CCC4(CC3)CN[C@H](C(=O)O)C4)nc(C)n2)C(F)(F)F)n1 [Example 29o, (S)-8-(2-methyl-6-((R)-2,2,2-trifluoro-1-(4′-isopropoxy-3-(3-methyl-1H-pyrazol-1-yl)-[1,1′-biphenyl]-4-yl)ethoxy)pyrimidin-4-yl)-2,8-diazaspiro[4.5]decane-3-carboxylic acid] | < 50 | –
10 | CC(C)(C)c1cccc(-c2cc(Cl)ccc2[C@@H](Oc2cc(N3CCC4(CC3)CN[C@H](C(=O)O)C4)nc(N)n2)C(F)(F)F)c1 [Example 34ao, (S)-8-(2-amino-6-((R)-1-(3′-(tert-butyl)-5-chloro-[1,1′-biphenyl]-2-yl)-2,2,2-trifluoroethoxy)pyrimidin-4-yl)-2,8-diazaspiro[4.5]decane-3-carboxylic acid] | – | < 50

Results, then the compound that gave them:

Row | IC50 [1] [nM] | IC50 [2] [nM] | Structure (SMILES)
11 | 50 to 300 | – | Cc1ccc(-c2ccc([C@@H](Oc3cc(N4CCC5(CC4)CN[C@H](C(=O)O)C5)nc(N)n3)C(F)(F)F)cc2)cn1 [Example 55bo, (S)-8-(2-amino-6-((R)-2,2,2-trifluoro-1-(4-(6-methylpyridin-3-yl)phenyl)ethoxy)pyrimidin-4-yl)-2,8-diazaspiro[4.5]decane-3-carboxylic acid]
12 | 50 to 300 | – | Nc1nc(O[C@H](c2ccc(-c3cc(F)cc(F)c3)cc2)C(F)(F)F)cc(N2CCC3(CC2)CN[C@H](C(=O)O)C3)n1 [Example 55ap, (S)-8-(2-amino-6-((R)-1-(3′,5′-difluoro-[1,1′-biphenyl]-4-yl)-2,2,2-trifluoroethoxy)pyrimidin-4-yl)-2,8-diazaspiro[4.5]decane-3-carboxylic acid]
13 | 300 to 3000 | – | Nc1nc(O[C@H](c2ccc3ccccc3c2)C(F)(F)F)cc(N2CCC3(CC2)CN[C@H](C(=O)O)C3)n1 [Example 59b, (S)-8-(2-amino-6-((R)-2,2,2-trifluoro-1-(naphthalen-2-yl)ethoxy)pyrimidin-4-yl)-2,8-diazaspiro[4.5]decane-3-carboxylic acid]
14 | 300 to 3000 | – | Nc1nc(O[C@H](c2ccc(-c3ccccc3C(F)(F)F)cc2)C(F)(F)F)cc(N2CCC3(CC2)CN[C@H](C(=O)O)C3)n1 [Example 55ce, (S)-8-(2-amino-6-((R)-2,2,2-trifluoro-1-(2′-(trifluoromethyl)-[1,1′-biphenyl]-4-yl)ethoxy)pyrimidin-4-yl)-2,8-diazaspiro[4.5]decane-3-carboxylic acid]
15 | 300 to 3000 | – | Nc1nc(O[C@H](c2ccc(-c3cccc(C(=O)N4CCCCC4)c3)cc2)C(F)(F)F)cc(N2CCC3(CC2)CN[C@H](C(=O)O)C3)n1 [Example 55bx, (S)-8-(2-amino-6-((R)-2,2,2-trifluoro-1-(3′-(piperidine-1-carbonyl)-[1,1′-biphenyl]-4-yl)ethoxy)pyrimidin-4-yl)-2,8-diazaspiro[4.5]decane-3-carboxylic acid]
16 | 300 to 3000 | – | CC(C)c1cccc(-c2ccc([C@@H](Oc3cc(N4CCC5(CC4)CN[C@H](C(=O)O)C5)nc(N)n3)C(F)(F)F)cc2)c1 [Example 55ck, (S)-8-(2-amino-6-((R)-2,2,2-trifluoro-1-(3′-isopropyl-[1,1′-biphenyl]-4-yl)ethoxy)pyrimidin-4-yl)-2,8-diazaspiro[4.5]decane-3-carboxylic acid]
17 | – | < 50 | CSc1ccc2cc(-c3ccc([C@@H](Oc4cc(N5CCC6(CC5)CN[C@H](C(=O)O)C6)nc(N)n4)C(F)(F)F)cc3)ccc2n1 [Example 55ai, (S)-8-(2-amino-6-((R)-2,2,2-trifluoro-1-(4-(2-(methylthio)quinolin-6-yl)phenyl)ethoxy)pyrimidin-4-yl)-2,8-diazaspiro[4.5]decane-3-carboxylic acid]
